Data taken from ChEMBL document CHEMBL4417631, “Oral peptide inhibitors of interleukin-23 receptor and their use to treat inflammatory bowel diseases” (2017).
Where a SMILES comes first, the peptide text is derived from it. [ ]: non-standard residue; d: D form. hLeu = CC(C)CC[C@H](N)C(=O)O

Target: T1, Interleukin-23 receptor (Homo sapiens, UniProt Q5VWK5)
T1 sequence (Q5VWK5 whole entry): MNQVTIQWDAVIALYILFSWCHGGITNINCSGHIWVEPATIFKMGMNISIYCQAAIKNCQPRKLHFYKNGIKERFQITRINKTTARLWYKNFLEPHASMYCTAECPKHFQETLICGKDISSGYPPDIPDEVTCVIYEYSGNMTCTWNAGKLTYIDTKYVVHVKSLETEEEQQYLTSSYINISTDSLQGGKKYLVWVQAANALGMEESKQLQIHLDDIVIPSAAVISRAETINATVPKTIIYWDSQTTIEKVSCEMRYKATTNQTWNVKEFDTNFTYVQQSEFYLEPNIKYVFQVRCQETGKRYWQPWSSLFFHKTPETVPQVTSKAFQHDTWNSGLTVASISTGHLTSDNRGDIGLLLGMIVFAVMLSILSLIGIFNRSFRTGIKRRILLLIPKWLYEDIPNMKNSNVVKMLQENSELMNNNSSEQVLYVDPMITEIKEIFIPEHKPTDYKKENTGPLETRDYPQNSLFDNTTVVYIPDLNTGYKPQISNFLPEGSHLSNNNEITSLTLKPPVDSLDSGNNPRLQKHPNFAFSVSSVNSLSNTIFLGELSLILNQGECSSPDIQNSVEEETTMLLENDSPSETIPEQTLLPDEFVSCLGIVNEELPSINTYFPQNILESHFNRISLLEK
Experiment: Inhibition of interleukin-23 binding to human interleukin-23 receptor incubated for 2 hrs by competitive binding ELISA

CC(C)[C@H](NC(=O)[C@H](Cc1c[nH]c2ccccc12)NC(=O)[C@H](CC(=O)O)NC(=O)[C@H](C)NC(=O)[C@@H](N)CS)C(=O)N[C@@H](CS)C(=O)N[C@@H](Cc1ccc(O)cc1)C(=O)N[C@@H](Cc1cccc2ccccc12)C(=O)N[C@@H](Cc1cnc[nH]1)C(=O)N[C@H](C(=O)N[C@@H](Cc1ccccc1)C(=O)NCC(N)=O)[C@@H](C)O
IC50: 500 to 1000 nM

CC(=O)NCCCC[C@H](NC(=O)[C@](C)(CCCCN)NC(=O)[C@H](Cc1ccc2ccccc2c1)NC(=O)[C@H](Cc1ccc(N)cc1)NC(=O)[C@@H](NC(=O)[C@H](CCC(N)=O)NC(=O)[C@H](Cc1c[nH]c2ccccc12)NC(=O)[C@@H](NC(=O)[C@H](CCC(N)=O)NC(=O)[C@@H](NC(C)=O)C(C)(C)S)[C@@H](C)O)C(C)(C)S)C(=O)N[C@@H](CC(N)=O)C(=O)NCC(N)=O
IC50: 100 to 1000 nM

CC(=O)N[C@@H](CS)C(=O)N[C@@H](CCC(N)=O)C(=O)N[C@@H](CC(=O)O)C(=O)N[C@@H](Cc1c[nH]c2ccccc12)C(=O)N[C@@H](CCC(N)=O)C(=O)N[C@@H](CS)C(=O)N[C@@H](Cc1ccc(O)cc1)C(=O)N[C@@H](Cc1c[nH]c2ccccc12)C(=O)N[C@@H](CCCNC(=N)N)C(=O)N[C@@H](CCC(=O)O)C(=O)N[C@@H](CC(N)=O)C(=O)NCC(=O)NCCOCC(=O)N[C@H](CCCCN)C(N)=O
IC50: < 500 nM

CC(=O)N[C@@H](CS)C(=O)N[C@@H](CCCCN)C(=O)N[C@H](C(=O)N[C@@H](Cc1c[nH]c2ccccc12)C(=O)N[C@@H](CCC(N)=O)C(=O)N[C@@H](CS)C(=O)N[C@@H](Cc1ccc(O)cc1)C(=O)N[C@@H](Cc1c[nH]c2ccccc12)C(=O)N[C@@H](CCCNC(=N)N)C(=O)N[C@H](C(=O)N[C@@H](Cc1ccccc1)C(=O)NCC(=O)NCCOCC(=O)N[C@H](CCCCN)C(N)=O)C(C)C)[C@@H](C)O
IC50: 40 nM

CC(C)[C@H](NC(=O)[C@H](Cc1c[nH]c2ccccc12)NC(=O)[C@H](CC(=O)O)NC(=O)[C@H](CS)NC(=O)[C@H](C)N)C(=O)N[C@@H](CS)C(=O)N[C@@H](Cc1ccc(O)cc1)C(=O)N[C@@H](Cc1c[nH]c2ccccc12)C(=O)N[C@@H](Cc1cnc[nH]1)C(=O)N[C@H](C(=O)N[C@@H](Cc1ccccc1)C(=O)NCC(N)=O)[C@@H](C)O
IC50: > 1000 nM

CC(=O)N[C@@H](CS)C(=O)N[C@@H](CCC(N)=O)C(=O)N[C@H](C(=O)N[C@@H](Cc1c[nH]c2ccccc12)C(=O)N[C@@H](CCC(N)=O)C(=O)N[C@@H](CS)C(=O)N1Cc2ccccc2C[C@H]1C(=O)N[C@@H](Cc1c[nH]c2ccccc12)C(=O)N[C@@H](CCC(C)C)C(=O)N[C@@H](CCC(=O)O)C(=O)N[C@@H](CC(N)=O)C(=O)NCC(N)=O)[C@@H](C)O
IC50: > 30000 nM

CC(=O)N[C@@H](CS)C(=O)N[C@@H](CCC(N)=O)C(=O)N[C@H](C(=O)N[C@@H](Cc1c[nH]c2ccccc12)C(=O)N[C@@H](CCC(N)=O)C(=O)N[C@@H](CS)C(=O)N[C@@H](Cc1ccc(O)cc1)C(=O)N[C@@H](Cc1c[nH]c2ccccc12)C(=O)N[C@@H](CCCNC(=N)N)C(=O)N(C)CC(=O)N[C@@H](CC(N)=O)C(=O)NCC(=O)NCCOCC(=O)N[C@H](CCCCN)C(N)=O)[C@@H](C)O
IC50: > 1000 nM

CC(C)[C@H](NC(=O)[C@H](Cc1c[nH]c2ccccc12)NC(=O)[C@@H](NC(=O)[C@H](CCC(N)=O)NC(=O)[C@@H](N)CS)[C@@H](C)O)C(=O)N[C@@H](CS)C(=O)N[C@@H](Cc1ccc(O)cc1)C(=O)N[C@@H](Cc1c[nH]c2ccccc12)C(=O)N[C@@H](Cc1cnc[nH]1)C(=O)N[C@H](C(=O)N[C@@H](Cc1ccc(O)cc1)C(=O)NCC(N)=O)[C@@H](C)O (H-CQTWVCYWHTYG-NH2)
IC50: > 1000 nM

CC(=O)N[C@@H](CS)C(=O)N[C@@H](CCC(N)=O)C(=O)N[C@H](C(=O)N1CCC[C@H]1C(=O)N[C@@H](CCC(N)=O)C(=O)N[C@@H](CS)C(=O)N[C@@H](Cc1ccc(O)cc1)C(=O)N[C@@H](Cc1c[nH]c2ccccc12)C(=O)N[C@@H](CCC(C)C)C(=O)N[C@@H](CCC(=O)O)C(=O)N[C@@H](CC(N)=O)C(=O)NCC(N)=O)[C@@H](C)O (Ac-CQTPQCYW[hLeu]ENG-NH2)
IC50: > 10000 nM

CC(=O)NC1CCC/C=C\CCC(C(=O)N[C@@H](Cc2ccc(O)cc2)C(=O)N[C@@H](Cc2c[nH]c3ccccc23)C(=O)N[C@@H](CCCNC(=N)N)C(=O)N[C@@H](CCCCN)C(=O)N[C@@H](Cc2ccccc2)C(=O)NCC(=O)NCCOCC(=O)N[C@H](CCCCN)C(N)=O)NC(=O)[C@H](CCC(N)=O)NC(=O)[C@H](Cc2c[nH]c3ccccc23)NC(=O)[C@H]([C@@H](C)O)NC(=O)[C@H](CCCNC(=N)N)NC1=O (stereo not given in full)
IC50: 1000 to 10000 nM

CC(=O)N[C@H](C(=O)N[C@@H](CCC(N)=O)C(=O)N[C@@H](Cc1ccccc1)C(=O)N[C@@H](CC(=O)O)C(=O)N[C@@H](CS)C(=O)N[C@@H](CCCNC(=N)N)C(=O)N[C@H](C(=O)N[C@@H](Cc1c[nH]c2ccccc12)C(=O)N[C@@H](CCC(=O)O)C(=O)N[C@@H](CS)C(=O)N[C@@H](Cc1ccc(O)cc1)C(=O)N[C@@H](Cc1c[nH]c2ccccc12)C(=O)N[C@@H](Cc1cnc[nH]1)C(=O)N[C@H](C(=O)N[C@@H](Cc1ccccc1)C(=O)NCC(N)=O)[C@@H](C)O)[C@@H](C)O)[C@@H](C)O
IC50: 500 to 1000 nM

CC[C@H](C)[C@H](NC(=O)[C@H](Cc1cnc[nH]1)NC(=O)[C@H](Cc1c[nH]c2ccccc12)NC(=O)[C@H](Cc1ccc(O)cc1)NC(=O)[C@H](CS)NC(=O)[C@H](CCCCN)NC(=O)[C@H](Cc1c[nH]c2ccccc12)NC(=O)[C@H](CC(=O)O)NC(=O)[C@H](CCCCN)NC(=O)[C@@H](N)CS)C(=O)N[C@@H](Cc1ccc(O)cc1)C(=O)NCC(N)=O (H-CKDWKCYWHIYG-NH2)
IC50: > 1000 nM

CC(=O)NCC(=O)N[C@@H](CC(=O)O)C(=O)N[C@@H](Cc1cnc[nH]1)C(=O)N[C@@H](CCCCN)C(=O)N[C@@H](CS)C(=O)N[C@@H](CO)C(=O)N[C@@H](CO)C(=O)N[C@@H](Cc1c[nH]c2ccccc12)C(=O)N[C@@H](CCC(=O)O)C(=O)N[C@@H](CS)C(=O)N[C@@H](Cc1ccc(O)cc1)C(=O)N[C@@H](Cc1c[nH]c2ccccc12)C(=O)N[C@@H](Cc1cnc[nH]1)C(=O)N[C@H](C(=O)N[C@@H](Cc1ccccc1)C(=O)NCC(N)=O)[C@@H](C)O (Ac-GDHKCSSWECYWHTFG-NH2)
IC50: 500 to 1000 nM

CC(=O)N[C@@H](CS)C(=O)N[C@@H](CCCCN)C(=O)N[C@H](C(=O)N[C@@H](Cc1c[nH]c2ccccc12)C(=O)N[C@H](C(=O)N[C@@H](CS)C(=O)N[C@@H](Cc1ccc(O)cc1)C(=O)N[C@@H](Cc1c[nH]c2ccccc12)C(=O)N[C@@H](Cc1cnc[nH]1)C(=O)N[C@@H](CCC(=O)O)C(=O)N[C@@H](Cc1ccccc1)C(=O)NCC(N)=O)[C@@H](C)O)[C@@H](C)O (Ac-CKTWTCYWHEFG-NH2)
IC50: < 500 nM

CC(=O)N[C@@H](CS)C(=O)N[C@@H](C)C(=O)N[C@@H](CC(=O)O)C(=O)N[C@@H](Cc1c[nH]c2ccccc12)C(=O)N[C@H](C(=O)N[C@@H](CS)C(=O)N[C@@H](Cc1ccc(O)cc1)C(=O)N[C@@H](Cc1c[nH]c2ccccc12)C(=O)N[C@@H](Cc1cnc[nH]1)C(=O)N[C@@H](CCC(=O)O)C(=O)N[C@@H](Cc1ccccc1)C(=O)NCC(N)=O)C(C)C
IC50: 500 to 1000 nM

CC(C)[C@H](NC(=O)[C@H](Cc1c[nH]c2ccccc12)NC(=O)[C@H](CC(=O)O)NC(=O)[C@H](C)NC(=O)[C@@H](N)CS)C(=O)N[C@@H](CS)C(=O)N[C@@H](Cc1ccc(O)cc1)C(=O)N[C@H](CC(=O)N[C@@H](Cc1cnc[nH]1)C(=O)N[C@H](C(=O)N[C@@H](Cc1ccccc1)C(=O)NCC(N)=O)[C@@H](C)O)Cc1c[nH]c2ccccc12
IC50: > 1000 nM

NC(=O)CC[C@H](NC(=O)[C@@H](N)CS)C(=O)N[C@@H](CO)C(=O)N[C@@H](Cc1c[nH]c2ccccc12)C(=O)N[C@@H](CCC(=O)O)C(=O)N[C@@H](CS)C(=O)N[C@@H](Cc1ccc(O)cc1)C(=O)N[C@@H](Cc1c[nH]c2ccccc12)C(=O)N[C@@H](Cc1cnc[nH]1)C(=O)N[C@@H](Cc1ccc(O)cc1)C(=O)N[C@@H](Cc1ccc(O)cc1)C(=O)NCC(N)=O (H-CQSWECYWHYYG-NH2)
IC50: > 1000 nM

CC(=O)N[C@@H](CS)C(=O)N[C@@H](CCC(N)=O)C(=O)N[C@H](C(=O)N[C@@H](Cc1c[nH]c2ccccc12)C(=O)N[C@H](C(=O)N[C@@H](CS)C(=O)N[C@@H](Cc1ccc(O)cc1)C(=O)N[C@@H](Cc1c[nH]c2ccccc12)C(=O)N[C@@H](CCCNC(=N)N)C(=O)N[C@@H](CCC(=O)O)C(=O)N[C@@H](CC(N)=O)C(=O)NCC(=O)NCCOCC(=O)N[C@H](CCCCN)C(N)=O)C(C)C)[C@@H](C)O
IC50: < 500 nM

CC(=O)N[C@@H](CS)C(=O)N[C@@H](C)C(=O)N[C@@H](CC(=O)O)C(=O)N[C@@H](Cc1c[nH]c2ccccc12)C(=O)N[C@H](C(=O)N[C@@H](CS)C(=O)N[C@@H](Cc1ccc(O)cc1)C(=O)N[C@@H](Cc1c[nH]c2ccccc12)C(=O)N[C@@H](Cc1cnc[nH]1)C(=O)N[C@H](C(=O)N[C@@H](Cc1cnc[nH]1)C(=O)NCC(=O)N[C@@H](CCC(=O)O)C(=O)N[C@@H](CCCNC(=N)N)C(N)=O)[C@@H](C)O)C(C)C
IC50: < 500 nM

CC(=O)N[C@@H](CS)C(=O)N[C@@H](CCC(N)=O)C(=O)N[C@H](C(=O)N[C@@H](Cc1c[nH]c2ccccc12)C(=O)N[C@@H](CCC(N)=O)C(=O)N[C@@H](CS)C(=O)N[C@@H](CCC(=O)O)C(=O)N[C@@H](Cc1c[nH]c2ccccc12)C(=O)N[C@@H](CCC(C)C)C(=O)N[C@@H](CCC(=O)O)C(=O)N[C@@H](CC(N)=O)C(=O)NCC(N)=O)[C@@H](C)O
IC50: > 30000 nM
